Laboratory results: patent US20080009418A1, “Selective Inhibitors” (Alchemia LTD., priority 2004, published 2008)

Columns and labels:
[1] = molecular target: T1, Human melanin-concentrating hormone (MCH1) (Homo sapiens, UniProt Q99705); test: Radioligand binding, human melanin-concentrating hormone MCH1 membranes, FlashPlate, [125I]-S36057; settings: compound at 10 μM; for A6 radioligand binding inhibition: human MCH1 membranes; for A6: inhibition of radioligand binding, human melanin-concentrating hormone (MCH1): [125I]-S36057
T1 construct: purchased Perkin Elmer Biosignal
How it was run: (§1)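 Cloned human receptor membranes were coated onto FlashPlate wells and incubated with radioligand and compound (added from a 0.5 mM DMSO daughter plate) for 1 hour at room temperature in the dark. Scintillation counting gave percent inhibition, with DMSO defining total and reference ligand defining non-specific binding.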

[2] = molecular target: T2, Human Melanocortin (MC4) (Homo sapiens, UniProt P32245); test: Radioligand binding, human melanocortin MC4 membranes, FlashPlate, [125I]-NDP-αMSH; settings: compound at 10 μM; for A4 radioligand binding inhibition: human melanocortin MC4 membranes
T2 construct: purchased Perkin Elmer Biosignal
How it was run: as §1

[3] = molecular target: T3, Human Melanocortin (MC3) (Homo sapiens, UniProt P41968); test: Radioligand binding, human melanocortin MC3 membranes, FlashPlate, [125I]-NDP-αMSH; settings: compound at 10 μM; for A3 radioligand binding inhibition: human melanocortin MC3 membranes
T3 construct: purchased Perkin Elmer Biosignal
How it was run: as §1

[4] = molecular target: T4, Mouse urotensin (mUR2) (Mus musculus, UniProt Q8VIH9); test: Radioligand binding, mouse urotensin mUR2 membranes, FlashPlate, [125I]-Urotensin II; settings: compound at 10 μM; for A11 radioligand binding inhibition: mouse urotensin mUR2 membranes
T4 construct: purchased Perkin Elmer Biosignal
T4 sequence (Q8VIH9 1-385): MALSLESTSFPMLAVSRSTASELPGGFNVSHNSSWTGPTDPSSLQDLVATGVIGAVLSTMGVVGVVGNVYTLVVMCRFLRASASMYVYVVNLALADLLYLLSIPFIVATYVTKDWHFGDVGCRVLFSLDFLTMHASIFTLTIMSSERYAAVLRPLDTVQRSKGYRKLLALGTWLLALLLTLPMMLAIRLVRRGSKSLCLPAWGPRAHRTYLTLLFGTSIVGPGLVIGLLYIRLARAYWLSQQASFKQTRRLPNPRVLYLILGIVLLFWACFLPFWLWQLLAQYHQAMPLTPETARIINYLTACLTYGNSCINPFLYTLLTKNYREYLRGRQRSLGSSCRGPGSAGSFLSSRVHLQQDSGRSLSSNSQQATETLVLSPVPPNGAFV
How it was run: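 Cloned mouse urotensin (mUR2) receptor membranes from Perkin Elmer Biosignal were immobilized in FlashPlate microplates using a proprietary coating. Each well got 19.5 μl buffer, then 0.5 μl of DMSO, reference ligand, or compound. Adding 5 μl of [125I]-Urotensin II, diluted to 5× final concentration in binding buffer, started binding. Plates were sealed with TopSeal-A and incubated 1 hour at room temperature in the dark. Wells were counted for 30 seconds each on a TopCount after a 60-second delay, and percentage inhibition was calculated.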

[5] = molecular target: T5, Human neuropeptide Y (NPY-Y1) (Homo sapiens, UniProt P25929); test: Radioligand binding, human neuropeptide Y NPY-Y1 membranes, FlashPlate, [125I]-PYY; settings: compound at 10 μM; for A9 radioligand binding inhibition: human NPY-Y1 membranes
T5 construct: purchased Perkin Elmer Biosignal
T5 sequence (P25929 1-384): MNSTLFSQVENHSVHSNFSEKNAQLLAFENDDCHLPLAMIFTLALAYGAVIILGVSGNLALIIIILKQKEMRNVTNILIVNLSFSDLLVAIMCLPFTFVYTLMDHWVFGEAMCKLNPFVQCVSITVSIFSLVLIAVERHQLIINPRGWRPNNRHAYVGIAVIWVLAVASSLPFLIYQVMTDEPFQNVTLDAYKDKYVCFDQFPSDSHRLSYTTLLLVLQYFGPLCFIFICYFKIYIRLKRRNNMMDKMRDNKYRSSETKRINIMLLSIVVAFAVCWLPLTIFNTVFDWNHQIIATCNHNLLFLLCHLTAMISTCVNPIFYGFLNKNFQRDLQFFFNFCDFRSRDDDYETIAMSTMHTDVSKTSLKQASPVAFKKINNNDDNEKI
How it was run: as §1

[6] = molecular target: T6, Human κ-Opioid (KOP) (Homo sapiens, UniProt P41145); test: Radioligand binding, human κ-opioid (KOP) membranes, filtration, [3H]-Diprenorphine; settings: compound at 10 μM; for A2 radioligand binding inhibition: human κ-opioid (KOP) membranes
T6 construct: purchased Perkin Elmer Biosignal
How it was run: (§2)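 Percent inhibition of radioligand binding measured on recombinant human membranes: NK1 with [125I]-Substance P, KOP with [3H]-Diprenorphine. Incubation 1 h at room temperature, then harvest onto 0.3% PEI-soaked filters, cold Tris-HCl pH 7.4 washes and scintillation counting; non-specific binding from reference ligand wells.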

[7] = molecular target: T7, Human melanocortin (MC5) (Homo sapiens, UniProt P33032); test: Radioligand binding, human melanocortin MC5 membranes, FlashPlate, [125I]-NDP-αMSH; settings: compound at 10 μM; for A5 radioligand binding inhibition: human melanocortin MC5 membranes
T7 construct: purchased Perkin Elmer Biosignal
How it was run: as §1

[8] = molecular target: T8, Human μ-opioid (MOP) (Homo sapiens, UniProt P35372); test: Radioligand binding, human μ-opioid (MOP) membranes, FlashPlate, [3H]-Naloxone; settings: compound at 10 μM; for A7 radioligand binding inhibition: human μ-opioid (MOP) membranes
T8 construct: purchased Perkin Elmer Biosignal
How it was run: as §1

[9] = molecular target: T9, Human opioid (ORL1) (Homo sapiens, UniProt P41146); test: Radioligand binding, human opioid ORL1 membranes, FlashPlate, [125I]-Nociceptin; settings: compound at 10 μM; for A10 radioligand binding inhibition: human ORL1 membranes
T9 construct: purchased Perkin Elmer Biosignal
How it was run: as §1

[10] = molecular target: T10, Human δ-opioid (DOP) (Homo sapiens, UniProt P41143); test: Radioligand binding, human δ-opioid (DOP) membranes, FlashPlate, [3H]-Bremazocine; settings: compound at 10 μM; for A1 radioligand binding inhibition: human δ-opioid (DOP) membranes
T10 construct: purchased Perkin Elmer Biosignal
How it was run: as §1

[11] = molecular target: T11, Human neurokinin (NK1) (Homo sapiens, UniProt P25103); test: Radioligand binding, human neurokinin NK1 membranes, filtration, [125I]-Substance P; settings: compound at 10 μM; for A8 radioligand binding inhibition: human neurokinin NK1 membranes
T11 construct: purchased Perkin Elmer Biosignal
How it was run: as §2

T3 sequence (P41968 whole entry): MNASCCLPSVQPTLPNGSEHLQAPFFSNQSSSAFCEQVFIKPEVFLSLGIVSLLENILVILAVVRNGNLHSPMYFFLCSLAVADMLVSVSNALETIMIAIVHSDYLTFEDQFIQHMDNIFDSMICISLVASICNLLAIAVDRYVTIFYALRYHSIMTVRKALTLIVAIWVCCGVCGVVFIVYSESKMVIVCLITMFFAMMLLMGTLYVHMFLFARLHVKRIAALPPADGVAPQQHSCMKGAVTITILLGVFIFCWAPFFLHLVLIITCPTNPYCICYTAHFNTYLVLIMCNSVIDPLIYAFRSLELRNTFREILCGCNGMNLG
T11 sequence (P25103 whole entry): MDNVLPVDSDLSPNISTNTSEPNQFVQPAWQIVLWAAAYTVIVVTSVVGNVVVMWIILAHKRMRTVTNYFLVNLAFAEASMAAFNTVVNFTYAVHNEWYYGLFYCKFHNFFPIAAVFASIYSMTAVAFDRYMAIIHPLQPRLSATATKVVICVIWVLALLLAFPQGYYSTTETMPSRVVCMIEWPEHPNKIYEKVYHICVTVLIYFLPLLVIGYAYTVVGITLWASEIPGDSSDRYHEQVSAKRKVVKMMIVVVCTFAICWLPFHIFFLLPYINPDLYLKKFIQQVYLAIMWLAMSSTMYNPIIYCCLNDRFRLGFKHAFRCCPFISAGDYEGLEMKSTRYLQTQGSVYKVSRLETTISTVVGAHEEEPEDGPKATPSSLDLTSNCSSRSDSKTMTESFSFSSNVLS
T1 sequence (Q99705 whole entry): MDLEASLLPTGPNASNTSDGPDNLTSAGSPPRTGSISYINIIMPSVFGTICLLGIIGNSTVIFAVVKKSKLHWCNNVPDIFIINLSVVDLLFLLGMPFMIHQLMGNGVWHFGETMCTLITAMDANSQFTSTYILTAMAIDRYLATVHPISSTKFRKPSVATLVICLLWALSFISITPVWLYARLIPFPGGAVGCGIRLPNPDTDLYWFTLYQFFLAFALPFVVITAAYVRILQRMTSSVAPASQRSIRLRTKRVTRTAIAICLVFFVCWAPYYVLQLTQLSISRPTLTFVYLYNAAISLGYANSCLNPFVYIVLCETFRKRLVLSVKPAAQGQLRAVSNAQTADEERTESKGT
T8 sequence (P35372 whole entry): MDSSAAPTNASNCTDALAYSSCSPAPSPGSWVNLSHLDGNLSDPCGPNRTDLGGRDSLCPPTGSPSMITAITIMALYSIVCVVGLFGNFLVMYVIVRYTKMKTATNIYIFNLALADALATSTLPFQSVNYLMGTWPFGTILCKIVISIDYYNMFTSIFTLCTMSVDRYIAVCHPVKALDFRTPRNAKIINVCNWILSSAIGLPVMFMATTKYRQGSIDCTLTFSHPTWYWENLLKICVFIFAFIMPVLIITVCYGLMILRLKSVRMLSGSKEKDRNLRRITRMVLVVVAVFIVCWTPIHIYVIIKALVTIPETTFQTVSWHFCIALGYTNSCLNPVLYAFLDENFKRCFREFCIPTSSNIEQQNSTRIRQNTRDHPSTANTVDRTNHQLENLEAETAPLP
T6 sequence (P41145 whole entry): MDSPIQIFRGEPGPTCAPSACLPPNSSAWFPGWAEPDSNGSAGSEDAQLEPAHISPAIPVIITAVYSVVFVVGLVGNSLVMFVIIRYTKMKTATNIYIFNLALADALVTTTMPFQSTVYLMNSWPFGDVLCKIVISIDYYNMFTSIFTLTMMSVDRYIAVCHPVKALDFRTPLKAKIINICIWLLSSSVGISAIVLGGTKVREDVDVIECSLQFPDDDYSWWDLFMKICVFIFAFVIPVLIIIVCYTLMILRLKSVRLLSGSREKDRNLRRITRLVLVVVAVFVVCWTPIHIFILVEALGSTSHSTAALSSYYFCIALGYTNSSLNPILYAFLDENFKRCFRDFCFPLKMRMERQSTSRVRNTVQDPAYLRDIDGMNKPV
T10 sequence (P41143 whole entry): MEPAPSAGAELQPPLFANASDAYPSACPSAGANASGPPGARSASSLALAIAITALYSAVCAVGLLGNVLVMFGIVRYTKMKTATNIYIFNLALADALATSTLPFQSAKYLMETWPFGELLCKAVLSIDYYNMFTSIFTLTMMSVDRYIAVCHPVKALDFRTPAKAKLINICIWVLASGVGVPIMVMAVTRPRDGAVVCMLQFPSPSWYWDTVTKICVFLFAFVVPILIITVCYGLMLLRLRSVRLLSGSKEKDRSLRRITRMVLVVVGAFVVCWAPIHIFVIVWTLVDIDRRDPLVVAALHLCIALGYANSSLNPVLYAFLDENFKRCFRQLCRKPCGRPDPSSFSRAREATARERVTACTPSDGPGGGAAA
T7 sequence (P33032 whole entry): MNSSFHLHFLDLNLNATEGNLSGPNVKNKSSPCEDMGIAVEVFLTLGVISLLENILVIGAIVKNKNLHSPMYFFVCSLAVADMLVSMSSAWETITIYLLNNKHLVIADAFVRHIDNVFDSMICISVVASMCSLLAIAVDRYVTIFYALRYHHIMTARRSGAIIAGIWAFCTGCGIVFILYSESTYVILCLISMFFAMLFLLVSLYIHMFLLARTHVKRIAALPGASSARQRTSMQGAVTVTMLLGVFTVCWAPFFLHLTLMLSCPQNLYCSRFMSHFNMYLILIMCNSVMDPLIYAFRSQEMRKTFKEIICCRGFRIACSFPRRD
T9 sequence (P41146 whole entry): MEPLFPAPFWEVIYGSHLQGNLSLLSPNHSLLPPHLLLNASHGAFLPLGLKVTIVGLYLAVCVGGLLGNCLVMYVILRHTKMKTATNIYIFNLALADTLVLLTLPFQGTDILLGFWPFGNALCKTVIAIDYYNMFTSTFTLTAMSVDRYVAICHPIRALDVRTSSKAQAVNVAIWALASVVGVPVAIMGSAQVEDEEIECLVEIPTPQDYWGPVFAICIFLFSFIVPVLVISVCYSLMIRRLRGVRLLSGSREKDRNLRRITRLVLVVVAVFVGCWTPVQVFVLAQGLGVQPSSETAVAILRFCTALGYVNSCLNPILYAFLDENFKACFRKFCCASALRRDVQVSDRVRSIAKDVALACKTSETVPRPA
T2 sequence (P32245 whole entry): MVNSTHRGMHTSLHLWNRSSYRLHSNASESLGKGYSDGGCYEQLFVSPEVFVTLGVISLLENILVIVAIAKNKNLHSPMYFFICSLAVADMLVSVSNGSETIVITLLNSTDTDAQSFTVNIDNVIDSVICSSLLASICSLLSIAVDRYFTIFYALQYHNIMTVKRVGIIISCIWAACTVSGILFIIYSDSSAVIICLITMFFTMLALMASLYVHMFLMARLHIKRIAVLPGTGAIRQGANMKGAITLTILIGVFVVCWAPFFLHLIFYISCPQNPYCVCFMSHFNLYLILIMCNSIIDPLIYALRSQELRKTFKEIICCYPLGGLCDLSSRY

COCC1OC(OCc2ccc3ccccc3c2)C(NC(=O)CN)C(OCc2ccc3ccccc3c2)C1O (stereo not shown) [compound 246]
A6: inhibition of radioligand binding ([1]; [125I]-S36057, FlashPlate): − (“−” indicates less than 50% inhibition at 10 μM)
A4: inhibition of radioligand binding ([2]; [125I]-NDP-αMSH, FlashPlate): − (“−” indicates less than 50% inhibition at 10 μM)
A3: inhibition of radioligand binding ([3]; [125I]-NDP-αMSH, FlashPlate): − (“−” indicates less than 50% inhibition at 10 μM)
A11: inhibition of radioligand binding ([4]; [125I]-Urotensin II, FlashPlate): − (“−” indicates less than 50% inhibition at 10 μM)
A9: inhibition of radioligand binding ([5]; [125I]-PYY, FlashPlate): − (“−” indicates less than 50% inhibition at 10 μM)
A2: inhibition of radioligand binding ([6]; [3H]-Diprenorphine, filtration): − (“−” indicates less than 50% inhibition at 10 μM)
A5: inhibition of radioligand binding ([7]; [125I]-NDP-αMSH, FlashPlate): − (“−” indicates less than 50% inhibition at 10 μM)
A7: inhibition of radioligand binding ([8]; [3H]-Naloxone, FlashPlate): − (“−” indicates less than 50% inhibition at 10 μM)
A10: inhibition of radioligand binding ([9]; [125I]-Nociceptin, FlashPlate): − (“−” indicates less than 50% inhibition at 10 μM)
A1: inhibition of radioligand binding ([10]; [3H]-Bremazocine, FlashPlate): − (“−” indicates less than 50% inhibition at 10 μM)
A8: inhibition of radioligand binding ([11]; [125I]-Substance P, filtration): + (“+” indicates greater than 50% inhibition at 10 μM)

CO[C@H]1[C@H](O)[C@@H](COCc2ccc(-c3ccccc3)cc2)OC(OCc2ccccc2)[C@@H]1NC(=O)CNC(=N)N (stereo partly shown) [compound 82]
A6 radioligand binding inhibition [1]: − (“−” indicates less than 50% inhibition at 10 μM)
A4 radioligand binding inhibition [2]: + (“+” indicates greater than 50% inhibition at 10 μM)
A3 radioligand binding inhibition [3]: − (“−” indicates less than 50% inhibition at 10 μM)
A11 radioligand binding inhibition [4]: − (“−” indicates less than 50% inhibition at 10 μM)
A9 radioligand binding inhibition [5]: − (“−” indicates less than 50% inhibition at 10 μM)
A2 radioligand binding inhibition [6]: − (“−” indicates less than 50% inhibition at 10 μM)
A5 radioligand binding inhibition [7]: − (“−” indicates less than 50% inhibition at 10 μM)
A7 radioligand binding inhibition [8]: − (“−” indicates less than 50% inhibition at 10 μM)
A10 radioligand binding inhibition [9]: − (“−” indicates less than 50% inhibition at 10 μM)
A1 radioligand binding inhibition [10]: − (“−” indicates less than 50% inhibition at 10 μM)
A8 radioligand binding inhibition [11]: + (“+” indicates greater than 50% inhibition at 10 μM)

CSC1OC(COCc2ccc(-c3ccccc3)cc2)C(O)C(OCc2ccc3ccccc3c2)C1NC(=O)CCNC(=N)N (stereo not shown) [compound 314]
A6: inhibition of radioligand binding, human melanin-concentrating hormone (MCH1) [1]: − (“−” indicates less than 50% inhibition at 10 μM)
A4: inhibition of radioligand binding, human melanocortin (MC4) ([2]; [125I]-NDP-αMSH): − (“−” indicates less than 50% inhibition at 10 μM)
A3: inhibition of radioligand binding, human melanocortin (MC3) ([3]; [125I]-NDP-αMSH): − (“−” indicates less than 50% inhibition at 10 μM)
A11: inhibition of radioligand binding, mouse urotensin (mUR2) ([4]; [125I]-Urotensin II): − (“−” indicates less than 50% inhibition at 10 μM)
A9: inhibition of radioligand binding, human neuropeptide Y (NPY-Y1) ([5]; [125I]-PYY): − (“−” indicates less than 50% inhibition at 10 μM)
A2: inhibition of radioligand binding, human κ-opioid (KOP) ([6]; [3H]-Diprenorphine): − (“−” indicates less than 50% inhibition at 10 μM)
A5: inhibition of radioligand binding, human melanocortin (MC5) ([7]; [125I]-NDP-αMSH): − (“−” indicates less than 50% inhibition at 10 μM)
A7: inhibition of radioligand binding, human μ-opioid (MOP) ([8]; [3H]-Naloxone): − (“−” indicates less than 50% inhibition at 10 μM)
A10: inhibition of radioligand binding, human opioid (ORL1) ([9]; [125I]-Nociceptin): − (“−” indicates less than 50% inhibition at 10 μM)
A1: inhibition of radioligand binding, human δ-opioid (DOP) ([10]; [3H]-Bremazocine): − (“−” indicates less than 50% inhibition at 10 μM)
A8: inhibition of radioligand binding, human neurokinin (NK1) ([11]; [125I]-Substance P): + (“+” indicates greater than 50% inhibition at 10 μM)

COC1C(O)C(COCc2ccc3ccccc3c2)OC(OCc2ccc(Cl)cc2)C1NC(=O)CNC(=N)N (stereo not shown) [compound 350]
A6: inhibition of radioligand binding, human melanin-concentrating hormone (MCH1) [1]: − (“−” indicates less than 50% inhibition at 10 μM)
A4: inhibition of radioligand binding, human melanocortin (MC4) ([2]; [125I]-NDP-αMSH): − (“−” indicates less than 50% inhibition at 10 μM)
A3: inhibition of radioligand binding, human melanocortin (MC3) ([3]; [125I]-NDP-αMSH): − (“−” indicates less than 50% inhibition at 10 μM)
A11: inhibition of radioligand binding, mouse urotensin (mUR2) ([4]; [125I]-Urotensin II): − (“−” indicates less than 50% inhibition at 10 μM)
A9: inhibition of radioligand binding, human neuropeptide Y (NPY-Y1) ([5]; [125I]-PYY): − (“−” indicates less than 50% inhibition at 10 μM)
A2: inhibition of radioligand binding, human κ-opioid (KOP) ([6]; [3H]-Diprenorphine): − (“−” indicates less than 50% inhibition at 10 μM)
A5: inhibition of radioligand binding, human melanocortin (MC5) ([7]; [125I]-NDP-αMSH): + (“+” indicates greater than 50% inhibition at 10 μM)
A7: inhibition of radioligand binding, human μ-opioid (MOP) ([8]; [3H]-Naloxone): − (“−” indicates less than 50% inhibition at 10 μM)
A10: inhibition of radioligand binding, human opioid (ORL1) ([9]; [125I]-Nociceptin): − (“−” indicates less than 50% inhibition at 10 μM)
A1: inhibition of radioligand binding, human δ-opioid (DOP) ([10]; [3H]-Bremazocine): − (“−” indicates less than 50% inhibition at 10 μM)
A8: inhibition of radioligand binding, human neurokinin (NK1) ([11]; [125I]-Substance P): + (“+” indicates greater than 50% inhibition at 10 μM)

CO[C@H]1[C@H](O)[C@@H](COCc2ccc(Cl)cc2)OC(OCc2ccccc2)[C@@H]1NC(=O)CNC(=N)N (stereo partly shown) [compound 90]
A6 radioligand binding inhibition [1]: − (“−” indicates less than 50% inhibition at 10 μM)
A4 radioligand binding inhibition [2]: − (“−” indicates less than 50% inhibition at 10 μM)
A3 radioligand binding inhibition [3]: − (“−” indicates less than 50% inhibition at 10 μM)
A11 radioligand binding inhibition [4]: − (“−” indicates less than 50% inhibition at 10 μM)
A9 radioligand binding inhibition [5]: − (“−” indicates less than 50% inhibition at 10 μM)
A2 radioligand binding inhibition [6]: − (“−” indicates less than 50% inhibition at 10 μM)
A5 radioligand binding inhibition [7]: − (“−” indicates less than 50% inhibition at 10 μM)
A7 radioligand binding inhibition [8]: − (“−” indicates less than 50% inhibition at 10 μM)
A10 radioligand binding inhibition [9]: − (“−” indicates less than 50% inhibition at 10 μM)
A1 radioligand binding inhibition [10]: − (“−” indicates less than 50% inhibition at 10 μM)
A8 radioligand binding inhibition [11]: + (“+” indicates greater than 50% inhibition at 10 μM)
